Test results from patent publication US8629256B2, “Genetically encoded calcium indicator polypeptides and nucleic acids encoding same” (Howard Hughes Medical Institute, priority 2009, dated 2014).

Assays:
histamine 1 receptor H1R = molecular target: T1, histamine 1 receptor H1R (Homo sapiens, UniProt P35367); test: H1R calcium flux fluorescence assay with GCaMP3 or small molecule dye kits; type: cell-based; conditions: HEK293 and HeLa cells
T1 construct: The H1R was cloned into the pCAG mammalian expression vector; expressed in transfected cells; host or cells: HEK293 and HeLa cells, transfected with pCAG-H1R (with pCAG-GCaMP3 or loaded with a dye kit)
Protocol: The nucleic acid sequence was cloned into a mammalian expression vector driving from the CAG promoter (pCAG).
The H1R was cloned into the pCAG mammalian expression vector. […] In parallel, HEK293 cells were transfected with pCAG-H1R and incubated with either of the two best-performing small molecule dye calcium kits (the BD Calcium Kit from BD Biosciences and the FLIPR Calcium-5 Kit from Molecular Devices). […] Biophys.

HEK293 cells = test: Baseline fluorescence (brightness) of GCaMP-transfected HEK293 cells; type: cell-based, human; conditions: 10 μM proteasome inhibitor
Protocol: FIGS. 1A-1E show the in vitro characterization of GCaMP3. […] FIG. 1B is a schematic representation of GCaMP2 and GCaMP3. Mutated residues are shown below GCaMP3. FIG. 1C is a graph of the fluorescence spectra of GCaMP3 and GCaMP2 (1 μM protein) with 1 mM Ca^2+ or 10 mM EGTA in MOPS buffer (30 mM MOPS, 100 mM KCl, pH 7.5) (average of three independent measurements). The fluorescence intensity of each indicator was normalized to the peak of the calcium-saturated spectrum. […] FIG. 1D is a graph of the Ca^2+ titration curve (1 μM protein) in MOPS buffer. […] FIG. 1E is images (left) and a graph (right) showing the improved baseline fluorescence of GCaMP3 compared to GCaMP2. Both indicators were either transfected to HEK293 cells or virally delivered to layer 2/3 cortical neurons. Images were taken either 48 hours post-transfection or 12 days post-viral injection, then analyzed with VOLOCITY® 5.0 (Improvision Imaging Processing & Vision Co., Coventry, England). 50 μm scale bar. […]
GCaMPs in pCMV were transfected into HEK293 cells using Lipofectamine 2000 (Invitrogen, Carlsbad, Calif.), and imaging experiments were performed 48 hours post transfection. 293 cells transfected with GCaMPs in 96-well plate were imaged on an FDSS plate reader (Hamamatsu, Japan). Acetylcholine (Ach) was automatically added 10 seconds after read initiation. Brightness was quantified using VOLOCITY® 5.0 (Improvision).

T1 sequence (P35367 with tags, fused parts or gaps): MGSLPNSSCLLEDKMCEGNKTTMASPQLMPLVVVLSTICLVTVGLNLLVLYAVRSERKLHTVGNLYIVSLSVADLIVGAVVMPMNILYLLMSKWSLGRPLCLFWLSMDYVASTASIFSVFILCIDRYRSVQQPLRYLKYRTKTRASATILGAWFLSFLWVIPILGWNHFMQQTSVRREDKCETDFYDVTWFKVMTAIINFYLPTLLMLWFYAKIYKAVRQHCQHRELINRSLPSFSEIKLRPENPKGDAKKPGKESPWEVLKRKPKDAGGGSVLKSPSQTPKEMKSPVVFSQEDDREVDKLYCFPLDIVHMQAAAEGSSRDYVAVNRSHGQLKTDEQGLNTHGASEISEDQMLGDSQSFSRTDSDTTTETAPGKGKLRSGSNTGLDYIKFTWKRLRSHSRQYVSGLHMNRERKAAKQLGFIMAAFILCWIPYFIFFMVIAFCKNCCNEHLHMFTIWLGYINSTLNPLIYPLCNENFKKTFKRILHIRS

SMILES	response-to-baseline ratio (histamine 1 receptor H1R; 10 nM histamine plus antagonist, all detection methods)	inhibition of the H1R receptor (histamine 1 receptor H1R; 10 nM histamine, GCaMP3 and both dye kits)	effect on baseline fluorescence of HEK293 cells expressing GCaMP2 (HEK293 cells)
O=C(O)COCCN1CCN(C(c2ccccc2)c2ccc(Cl)cc2)CC1 (stereo not drawn) [cetirizine]	~1.0	near complete inhibition	
CC(=O)N[C@@H](CSC(=O)[C@]1([C@@H](O)C(C)C)NC(=O)[C@H](C)[C@@H]1O)C(=O)O [lactacystin]			increased the baseline fluorescence
